Test results reported in US10906929B2, “Phosphoramidate nucleoside derivatives as anticancer agents” (NuCana plc, priority 2016, dated 2021).

Key:
[1] = test system: leukaemic stem cell compartment (Lin-/CD34+/CD38-/CD123+) within the KG1a cell line; assay: Immunophenotypic identification of the leukaemic stem cell compartment; format: cell-based; conditions: 72 h, LSC phenotype as percentage of all viable cells left, Control: 4%
Protocol: A further comparative analysis of the toxicity of compounds in the KG1a cell line over an extended dose range was carried out, and the relative effect assessed of the compounds on the leukaemic stem cell compartment within the KG1a cell line, across the entire dose range. Thus, experimental tests were performed on certain compounds of the present invention to assess their ability to target cancer stem cells in a leukaemic cell line. The acute myeloid leukaemia (AML) cell line, KG1a, was employed to assess the relative effect of compounds on the stem cell compartment. The KG1a cell line was selected because it manifests a minor stem cell-like compartment with a distinct immunophenotype (Lin^−/CD34^+/CD38^−/CD123^+).
Cells of the KG1a cell line were maintained in RPMI medium (Invitrogen, Paisley, UK) supplemented with 100 units/ml penicillin, 100 μg/ml streptomycin and 20% foetal calf serum. Cells were subsequently aliquoted (10^5 cells/100 μl) into 96-well plates and were incubated at 37° C. in a humidified 5% carbon dioxide atmosphere for 72 h in the presence of nucleoside analogues and their respective phosphoramidates at concentrations that were experimentally determined for each series of compounds. In addition, control cultures were carried out to which no drug was added. Cells were subsequently harvested by centrifugation and were analyzed by flow cytometry using the Annexin V assay.
KG1a cells were cultured for 72 h in the presence of a wide range of concentrations of each compound assayed. Cells were then harvested and labelled with a cocktail of anti-lineage antibodies (PE-cy7), anti-CD34 (FITC), anti-CD38 (PE) and anti-CD123 (PERCP cy5). The sub-population expressing a leukaemic stem cell (LSC) phenotype were subsequently identified and were expressed as a percentage of all viable cells left in the culture. […]

U937 = assay: In vitro cytotoxicity, MTS assay; format: cell-based; conditions: Homo sapiens, U-937, 72 h, read-out: Inhibitory concentration (IC50) U937
Protocol: (§1) Cladribine phosphoramidate derivatives were evaluated against six leukaemic cell lines (KG1, U937, K562, NB4R2, NB4 and HL-60) in vitro. Inhibitory concentration (IC50) at which 50% of the cells were no longer viable (calculated using MTS assay) was determined. Cells were treated with Cladribine and its 3′-phosphoramidate derivatives at concentrations between 100 μM and 0.02 μM by serial dilutions and incubated for 72 h at 37° C., 5% CO2 in a final volume of 90 μL. Twenty microliters of MTS reagent (Promega UK Ltd, Southampton, Hants) was added to the tumour cell cultures and reaction incubated for a further 4 h at 37° C., 5% CO2. The absorbance of the reaction after this time was read by spectrophotometry at 490 nm and the percentage of viable cells calculated relative to untreated control cells in the same assay.

NB4 = assay: In vitro cytotoxicity, MTS assay; format: cell-based; conditions: Homo sapiens, NB-4, 72 h, read-out: Inhibitory concentration (IC50) NB4
Protocol: as §1

KG1 = assay: In vitro cytotoxicity, MTS assay; format: cell-based; conditions: Homo sapiens, KG-1, 72 h, read-out: Inhibitory concentration (IC50) KG1
Protocol: as §1

HL-60 = assay: In vitro cytotoxicity, MTS assay; format: cell-based; conditions: Homo sapiens, 72 h, read-out: Inhibitory concentration (IC50) HL-60
Protocol: as §1

K562 = assay: In vitro cytotoxicity, MTS assay; format: cell-based; conditions: Homo sapiens, 72 h, read-out: Inhibitory concentration (IC50) K562
Protocol: as §1

NB4R2 = assay: In vitro cytotoxicity, MTS assay; format: cell-based; conditions: 72 h, read-out: Inhibitory concentration (IC50) NB4R2
Protocol: as §1

[2] = test system: MCF-7 Mammary epithelial adenocarcinoma; assay: In vitro viability assay, CellTiterGlo; format: cell-based, human; conditions: MCF-7, CellTiterGlo, 72 h
Protocol: In vitro viability assay was performed to assess the effects of compounds on cell viability in selected cell lines over 72 h using the CellTiterGlo (CTG, Promega-G7573) assay. The tests were performed in duplicates with treatment of compounds at 9 points, 3.16 folds titration in 96 well plates over ˜72 h. The compound starting concentrations were […]. Cell viability assay using CellTiterGlo in 96-well plate were performed. Compounds were dissolved to 40 mM with thawed 100% DMSO. Compounds were serially diluted at 3.16-fold in thawed DMSO, and warmed to 37° C. before being dissolved in media (2 μl+200 μl). After compounds were dissolved in media, media containing compounds were warmed to 37° C. in incubator and then compounds in media were added to cell plates (50 μl+50 μl) in duplicates. The compounds' final concentrations were from 198 μM to 19.9 nM. Solubility of all compounds was checked and recorded again, then the plates were transferred to CO2 tissue culture incubator immediately and incubated for 3 days. DMSO final concentration is 0.5%.

MCF7 = assay: Cytostatic activity, cell counting (Coulter counter); format: cell-based; conditions: Homo sapiens, MCF7; uninfected, 72 h proliferation; read-out: IC50 MCF7
Source text: (§2) Tumor cell cultures were infected with M. hyorhinis (ATCC 17981) and after two or more passages (to avoid bias by the initial inoculum) successful infection was confirmed using the MycoAlert™ mycoplasma detection kit (Lonza, Basel, Switzerland). Although this assay is only semi-quantitative, a maximal infection was observed 3 to 4 days after subcultivation of the mycoplasma-exposed cells. Chronically infected tumor cell lines are further referred to as Cell line.Hyor. All tumor cell cultures were maintained in Dulbecco's modified Eagle's medium (DMEM) (Invitrogen) supplemented with 10% fetal bovine serum (Biochrom AG, Berlin, Germany), 10 mm HEPES, and 1 mm sodium pyruvate (Invitrogen). Cells were grown at 37° C. in a humidified incubator with a gas phase containing 5% CO2.
(§3) The cytostatic activity of the test compounds was examined in mycoplasma-infected and uninfected cancer cell lines. When assaying the effect of M. hyorhinis infection, monolayer MCF7 and MCF7.Hyor cells were seeded in 48-well microtiter plates (Nunc™, Roskilde, Denmark) at 10,000 cells/well (Corning Inc., Corning, N.Y.) […]. After 24 h, the cells were exposed to different concentrations of test compound and allowed to proliferate for 72 h (to ensure sufficient cell proliferation and mycoplasma growth) after which the cells were trypsinized and counted using a Coulter counter (Analis, Suarlée, Belgium). Suspension cells (L1210, L1210.Hyor, FM3A, and FM3A.Hyor) were seeded in 96-well microtiter plates (Nunc) at 60,000 cells/well in the presence of different concentrations of test compound. The cells were allowed to proliferate for 48 h and then counted using a Coulter counter. The 50% inhibitory concentration (IC50) was defined as the compound concentration required to reduce cell proliferation by 50%.

L1210 = assay: as above; format: cell-based; conditions: Mus musculus, L1210; uninfected, 48 h proliferation; read-out: IC50 L1210
Source text: as §2, §3

Q: For `Nc1nc(Cl)nc2c1ncn2[C@H]1C[C@H](O)[C@@H](CO)O1` [Cladribine, cladribine, reference compound], which Stem cell % [1] is on record?
A: 6%

Q: And the IC50 (U937)?
A: 20 nM

Q: And the IC50 (NB4)?
A: 40 nM

Q: And the IC50 (KG1)?
A: 60 nM

Q: What about the IC50 (HL-60) of the same molecule?
A: 90 nM

Q: And the IC50 (K562)?
A: 530 nM

Q: And the IC50 (NB4R2)?
A: 60 nM

Q: And the EC50 ([2]; Homo sapiens, MCF7, read-out: EC50 (μM) Ab)?
A: > 198 µM

Q: And the “Top Inhibition (%)” value [2]?
A: 36.3%

Q: And the IC50 (MCF7)?
A: 370 nM

Q: What about the IC50 (L1210) of the same molecule?
A: 400 nM
